Laboratory results as given in ChEMBL document CHEMBL4251633, “Design, synthesis, biological evaluation and cocrystal structures with tubulin of chiral β-lactam bridged combretastatin A-4 analogues as potent antitumor agents” (Eur J Med Chem, 2018).
pIC50: −log10 of the molar value. The source made the active and inactive calls. No cut-off for these calls is given here.

Tests used:
HeLa [1] = test: Induction of apoptosis in human HeLa cells assessed as live cells at 50 nM after 48 hrs by Annexin V-FITC/propidium iodide staining based flow cytometry (reference value: 96.5%); format: functional
HeLa [2] = test: Upregulation of cleaved PARP1 protein expression in human HeLa cells after 48 hrs by Western blot analysis; format: functional, cell-based
Mus musculus [3] = test: Toxicity in Balb/c nude mouse xenografted with human A2780 cells assessed as abnormality in kidney at 8 mg/kg, ip once in every 2 days measured after 14 days by H and E staining based assay; format: organism-based; details: in vivo, 336 h
Sus scrofa = organism: Sus scrofa; test: (§1) Inhibition of pig brain tubulin polymerization measured every 1 min for 20 mins by spectrophotometric method
[4] = as §1; set-up: species or system Sus scrofa
Mus musculus [5] = test: Toxicity in Balb/c nude mouse xenografted with human A2780 cells assessed as abnormality in liver at 8 mg/kg, ip once in every 2 days measured after 14 days by H and E staining based assay; format: organism-based; details: in vivo, 336 h
HeLa [6] = test: Induction of apoptosis in human HeLa cells assessed as necrotic cells at 200 nM after 48 hrs by Annexin V-FITC/propidium iodide staining based flow cytometry (reference value: 0.9%); format: functional
[7] = molecular target: Mitotic checkpoint serine/threonine-protein kinase BUB1 beta (Homo sapiens) (UniProt O60566); test: Induction of BubR1 hyperphosphorylation in human HeLa cells by Western blot analysis; format: cell-based
Chain of Mitotic checkpoint serine/threonine-protein kinase BUB1 beta (Homo sapiens) (O60566 whole entry): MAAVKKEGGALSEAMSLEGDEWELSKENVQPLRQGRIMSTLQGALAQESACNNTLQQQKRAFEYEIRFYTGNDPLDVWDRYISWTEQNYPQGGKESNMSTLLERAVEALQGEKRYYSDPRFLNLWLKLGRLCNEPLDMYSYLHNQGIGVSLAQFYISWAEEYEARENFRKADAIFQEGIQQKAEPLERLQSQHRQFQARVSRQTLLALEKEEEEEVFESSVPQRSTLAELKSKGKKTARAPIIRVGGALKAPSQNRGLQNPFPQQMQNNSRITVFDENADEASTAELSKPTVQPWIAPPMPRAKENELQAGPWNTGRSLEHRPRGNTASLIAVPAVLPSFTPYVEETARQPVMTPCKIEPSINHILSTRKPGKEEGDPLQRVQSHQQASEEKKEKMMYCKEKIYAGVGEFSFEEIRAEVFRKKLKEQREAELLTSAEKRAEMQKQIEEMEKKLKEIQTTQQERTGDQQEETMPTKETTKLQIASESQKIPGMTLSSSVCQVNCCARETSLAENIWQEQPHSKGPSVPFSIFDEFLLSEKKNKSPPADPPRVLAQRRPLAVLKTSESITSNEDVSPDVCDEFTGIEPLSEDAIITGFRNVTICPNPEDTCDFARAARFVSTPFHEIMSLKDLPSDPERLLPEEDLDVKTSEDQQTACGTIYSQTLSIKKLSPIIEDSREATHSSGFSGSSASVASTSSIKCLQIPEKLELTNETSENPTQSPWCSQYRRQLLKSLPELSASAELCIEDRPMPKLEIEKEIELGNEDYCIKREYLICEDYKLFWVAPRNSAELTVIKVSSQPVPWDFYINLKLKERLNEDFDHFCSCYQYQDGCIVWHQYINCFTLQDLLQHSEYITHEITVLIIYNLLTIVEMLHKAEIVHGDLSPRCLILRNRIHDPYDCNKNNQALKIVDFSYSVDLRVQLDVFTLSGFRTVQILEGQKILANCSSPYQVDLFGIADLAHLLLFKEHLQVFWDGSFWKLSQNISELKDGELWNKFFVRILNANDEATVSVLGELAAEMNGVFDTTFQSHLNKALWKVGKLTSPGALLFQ

A2780 = test: Antitumor activity against human A2780 cells xenografted in Balb/c nude mouse assessed as induction of tumor necrosis at 8 mg/kg, ip once in every 2 days measured after 14 days by H and E staining based assay; format: functional, organism-based
Mus musculus [8] = test: Anti-vascular activity in Balb/c nude mouse assessed as inhibition of VEGF-induced capillary blood vessel formation by measuring reduction in hemoglobin level using sc injected matrigel plug supplemented with 100 nM test compound mixed with VEGF and measured after 1 week by matrigel plug assay; format: functional, organism-based
HeLa [9] = test: Induction of apoptosis in human HeLa cells assessed as late apoptotic cells at 100 nM after 48 hrs by Annexin V-FITC/propidium iodide staining based flow cytometry (reference value: 2%); format: functional

## COc1ccc([C@H]2[C@H](C)C(=O)N2c2cc(OC)c(OC)c(OC)c2)cc1O
HeLa [1]
  Activity: 42%
HeLa [2]
  Activity: Dose-dependent effect
Mus musculus [3]
  Activity: Non-Toxic
Sus scrofa
  inhibition: Dose-dependent effect
[4]
  pIC50: 5.77
Mus musculus [5]
  Activity: Non-Toxic
HeLa [6]
  Activity: 7.2%
[7]
  Activity: Dose-dependent effect
A2780
  Activity: Active
Mus musculus [8]
  inhibition: Active
HeLa [9]
  Activity: 29.9%
